Earlier results on 16 molecules are cited in the PKSmart pharmacokinetics tables (Seal et al. 2025).

SMILES strings stand for the structures.

A short description of series [1]: not given per row; by the article one of three: Lombardo et al. 2013, J Clin Pharmacol 53:178, doi 10.1177/0091270012440282; 'New Drugs at FDA', novel drug approvals for 2021 and 2022 (the article's reference 43); Yap, Li, Chen 2006, J Mol Graph Model 24:383, doi 10.1016. As to conditions: human; for clearance / Vd / half-life: in vivo; for fraction unbound: plasma.

Series [2] is described as follows: Lombardo, Berellini, Obach 2018, Drug Metab Dispos 46:1466, doi 10.1124/dmd.118.082966. As to conditions: human; for MRT / Vd / clearance / half-life: in vivo, iv; for fraction unbound: plasma.
Series [3] can be described thus: Lombardo et al. 2013, J Clin Pharmacol 53:178, doi 10.1177/0091270012440282. To be noted: for Vd / clearance: in vivo, iv; for fraction unbound: plasma.

The term clearance denotes the rate of elimination divided by the concentration. Regarding `O[C@@](CCN1CCCC1)(c1ccccc1)C1CCCCC1`, in series [1], the clearance is 0.97 mL/min/kg.

For `CCCC(NC(C)C(=O)N1C(C(=O)O)C[C@@H]2CCCC[C@H]21)C(=O)O` (some centres undefined), the clearance in series [1] is 10.9 mL/min/kg.

For `COc1cc(Cc2cnc(N)nc2N)cc(OC)c1Br`, the clearance in series [1] was 0.6 mL/min/kg.

`C[C@](O)(CS(=O)(=O)c1ccc(F)cc1)C(=O)Nc1ccc(C#N)c(C(F)(F)F)c1`: the clearance in series [1] was 3.67 mL/min/kg.

In general, Vd refers to a proportionality between amount in the body and measured concentration, not a real space. In general, half-life refers to the time needed for the level to fall by half in the phase considered. Take `CC(C)NC(=O)COc1cccc(-c2nc(Nc3ccc4[nH]ncc4c3)c3ccccc3n2)c1`: in series [1], the Vd was 3.07 L/kg, the clearance was 2.73 mL/min/kg and the half-life is 19 h.

In the case of `NC(C(=O)NC1C(=O)N2C(C(=O)O)=C(Cl)CS[C@H]12)c1ccccc1` (some centres undefined), the clearance in series [1] was 6.1 mL/min/kg.

The fraction unbound is free concentration divided by total concentration. For `CNCc1cc(-c2ccccc2F)n(S(=O)(=O)c2cccnc2)c1`, in series [1], the Vd was 13 L/kg, the clearance was 22.6 mL/min/kg, the half-life was 6.8 h and the fraction unbound was 0.14.

As to `CCCCC1(CCCC)CS(=O)(=O)c2ccc(N(C)C)cc2[C@@H](c2ccc(OCc3ccc(C[N+]45CCN(CC4)CC5)cc3)cc2)[C@H]1O`, in series [1], the half-life is 1.6 h and the fraction unbound is 0.09.

A word on the MRT: it is the average time that molecules of a dose stay in the body. For the molecule `CC(C)Oc1ccccc1N1CCN(Cc2cccc(C(=O)N3CCCCC3)c2)CC1`, in series [2], the MRT is 4.2 h, the Vd was 1.54 L/kg, the clearance was 6.17 mL/min/kg and the half-life is 4.6 h. In addition, in series [3] (rat), the Vd is 1.73 L/kg, the clearance is 39.2 mL/min/kg and the fraction unbound was 0.03.

For `Cn1c(=O)c2c(ncn2CC(O)CO)n(C)c1=O` (centres undefined), in series [2], the MRT was 1.5 h, the Vd is 0.42 L/kg, the clearance is 4.8 mL/min/kg and the half-life is 1.7 h. For the same molecule, in series [3] (rat), the Vd is 1.04 L/kg and the clearance was 24.7 mL/min/kg.

In the case of `CN[C@@H](C)Cc1ccccc1`, in series [2], the MRT is 16 h, the Vd is 4.3 L/kg, the clearance is 4.4 mL/min/kg and the half-life is 12 h. Further, the fraction unbound in series [2] was 0.85. In series [3] (rat), the Vd was 9 L/kg, the clearance was 126 mL/min/kg and the fraction unbound is 0.92.

On to `Cc1cccc(Nc2ccncc2S(=O)(=O)NC(=O)NC(C)C)c1`, for which, in series [2], the MRT was 6.6 h, the Vd is 0.21 L/kg, the clearance is 0.53 mL/min/kg and the half-life is 5.1 h. Further, in series [3] (dog), the Vd is 0.08 L/kg, the clearance was 0.14 mL/min/kg and the fraction unbound is 0.02. In series [3] (rat), the Vd was 0.23 L/kg, the clearance was 3.74 mL/min/kg and the fraction unbound is 0.06.

With `CCOc1ccccc1OCCN[C@H](C)Cc1ccc(OC)c(S(N)(=O)=O)c1`, in series [2], the MRT was 5.6 h, the Vd was 0.21 L/kg, the clearance was 0.62 mL/min/kg and the half-life was 6.8 h. Moreover, in series [3] (dog), the Vd was 1.74 L/kg, the clearance is 19.3 mL/min/kg and the fraction unbound was 0.1. For the same molecule, in series [3] (rat), the Vd is 3.25 L/kg, the clearance was 82.2 mL/min/kg and the fraction unbound is 0.24.

In the case of `CN(C)CCCC1(c2ccc(F)cc2)OCc2cc(C#N)ccc21` (centres undefined), in series [2], the MRT was 47 h, the clearance is 4.3 mL/min/kg and the half-life was 33 h. In addition, in series [3] (dog), the Vd is 10 L/kg, the clearance is 14 mL/min/kg and the fraction unbound was 0.444. Further, in series [3] (monkey), the Vd is 10 L/kg, the clearance is 40 mL/min/kg and the fraction unbound is 0.399. In addition, in series [3] (rat), the Vd is 21 L/kg, the clearance was 82 mL/min/kg and the fraction unbound is 0.26.

On to `CNS(=O)(=O)Cc1ccc2[nH]cc(CCN(C)C)c2c1`, for which, in series [2], the MRT was 1.5 h, the Vd is 1.7 L/kg, the clearance was 19 mL/min/kg and the half-life was 1.7 h. Moreover, in series [3] (dog), the Vd is 1.74 L/kg, the clearance is 13.9 mL/min/kg and the fraction unbound was 0.86. For the same molecule, in series [3] (rat), the Vd is 1.15 L/kg, the clearance was 28 mL/min/kg and the fraction unbound was 0.85.

Take `CN(c1nc2ccccc2s1)C1CCN(C[C@H](O)COc2ccc(F)c(F)c2)CC1`: the values for the fraction unbound in series [2] and in series [3] (rat) were 0.003 and 0.008, respectively.
